Measured values published in patent US8383584B2, “HCV inhibiting macrocyclic phenylcarbamates” (Medivir AB, priority 2007, dated 2013).

These molecules were tested on HCV replicons (Huh-7 luc/neo cells, NS3-NS5B regions of HCV type 1b) (assay: Replicon assay (Huh-Luc luciferase, HCV RNA replication)). Conditions: Hepatitis C virus, Huh-7, 72 h, read-out: EC50 Replicon assay.
Assay type: cell-based
Source text: The compounds of formula (I) were examined for activity in the inhibition of HCV RNA replication in a cellular assay. […] The cellular assay was based on a bicistronic expression construct, as described by Lohmann et al. (1999) Science vol. 285 pp. 110-113 with modifications described by Krieger et al. (2001) Journal of Virology 75: 4614-4624, in a multi-target screening strategy. In essence, the method was as follows.
The assay utilized the stably transfected cell line Huh-7 luc/neo (hereafter referred to as Huh-Luc). This cell line harbors an RNA encoding a bicistronic expression construct comprising the wild type NS3-NS5B regions of HCV type 1b translated from an Internal Ribosome Entry Site (IRES) from encephalomyocarditis virus (EMCV), preceded by a reporter portion (FfL-luciferase), and a selectable marker portion (neo^R, neomycine phosphotransferase). The construct is bordered by 5′ and 3′ NTRs (non-translated regions) from HCV type 1b. Continued culture of the replicon cells in the presence of G418 (neo^R) is dependent on the replication of the HCV RNA. The stably transfected replicon cells that express HCV RNA, which replicates autonomously and to high levels, encoding inter alia luciferase, are used for screening the antiviral compounds.
The replicon cells were plated in 384 well plates in the presence of the test and control compounds which were added in various concentrations. Following an incubation of three days, HCV replication was measured by assaying luciferase activity (using standard luciferase assay substrates and reagents and a Perkin Elmer ViewLux™ ultraHTS microplate imager). Replicon cells in the control cultures have high luciferase expression in the absence of any inhibitor. The inhibitory activity of the compound on luciferase activity was monitored on the Huh-Luc cells, enabling a dose-response curve for each test compound. EC50 values were then calculated, which value represents the amount of the compound required to decrease by 50% the level of detected luciferase activity, or more specifically, the ability of the genetically linked HCV replicon RNA to replicate.

SMILES | EC50 [nM]
CN1CCCC/C=C\[C@@H]2C[C@@]2(C(=O)NS(=O)(=O)C2(C)CC2)NC(=O)[C@@H]2C[C@@H](OC(=O)Nc3cccc(N(C)C)c3)C[C@H]2C1=O [Example 9, (3-Dimethylaminophenyl)-carbamic acid 13-methyl-4-(1-methyl-cyclopropane-sulfonylaminocarbonyl)-2,14-dioxo-3,13-diaza-tricyclo[13.3.0.0*4,6*]octadec-7-en-17-yl ester] | 1000 to 10000

Same assay, conditions: Hepatitis C virus, Huh-7, 72 h; Huh-Luc cells, three days incubation, luciferase activity; read-out: EC50 Replicon assay

SMILES | EC50 [nM]
COc1cccc(NC(=O)O[C@@H]2C[C@H]3C(=O)N[C@]4(C(=O)NS(=O)(=O)C5(C)CC5)C[C@H]4/C=C\CCCCN(C)C(=O)[C@@H]3C2)c1 [Example 14, (3-Methoxy-phenyl)-carbamic acid 13-methyl-4-(1-methyl-cyclopropanesulfonyl-aminocarbonyl)-2,14-dioxo-3,13-diaza-tricyclo[13.3.0.0*4,6*]octadec-7-en-17-yl ester] | 200 to 990
Cc1nc(-c2cccc(NC(=O)O[C@@H]3C[C@H]4C(=O)N[C@]5(C(=O)NS(=O)(=O)C6CC6)C[C@H]5/C=C\CCCCN(C)C(=O)[C@@H]4C3)c2)cs1 [Example 17, [3-(2-Methyl-thiazol-4-yl)-phenyl]-carbamic acid 4-cyclopropanesulfonylamino-carbonyl-13-methyl-2,14-dioxo-3,13-diaza-tricyclo[13.3.0.0*4,6*]octadec-7-en-17-yl ester] | 1000 to 10000
CN1CCCC/C=C\[C@@H]2C[C@@]2(C(=O)NS(=O)(=O)C2(C)CC2)NC(=O)[C@@H]2C[C@@H](OC(=O)Nc3cccc(C#N)c3)C[C@H]2C1=O [Example 13, (3-Cyanophenyl)-carbamic acid 13-methyl-4-(1-methylcyclopropanesulfonylamino-carbonyl)-2,14-dioxo-3,13-diaza-tricyclo[13.3.0.0*4,6*]octadec-7-en-17-yl ester] | 0.5 to 199
COc1ccccc1NC(=O)O[C@@H]1C[C@H]2C(=O)N[C@]3(C(=O)NS(=O)(=O)C4CC4)C[C@H]3/C=C\CCCCN(C)C(=O)[C@@H]2C1 [Example 3, (2-Methoxy-phenyl)-carbamic acid 4-cyclopropanesulfonylaminocarbonyl-13-methyl-2,14-dioxo-3,13-diaza-tricyclo[13.3.0.0*4,6*]octadec-7-en-17-yl ester] | 1000 to 10000
Cc1ccc(F)c(NC(=O)O[C@@H]2C[C@H]3C(=O)N[C@]4(C(=O)NS(=O)(=O)C5CC5)C[C@H]4/C=C\CCCCN(C)C(=O)[C@@H]3C2)c1 [Example 16, (2-Fluoro-5-methyl-phenyl)-carbamic acid 4-cyclopropanesulfonylaminocarbonyl-13-methyl-2,14-dioxo-3,13-diaza-tricyclo[13.3.0.0*4,6*]octadec-7-en-17-yl ester] | 1000 to 10000
CN1CCCC/C=C\[C@@H]2C[C@@]2(C(=O)NS(=O)(=O)C2CC2)NC(=O)[C@@H]2C[C@@H](OC(=O)Nc3ccccc3Oc3ccccc3)C[C@H]2C1=O [Example 2, (2-Phenoxyphenyl)-carbamic acid 4-cyclopropanesulfonylaminocarbonyl-13-methyl-2,14-dioxo-3,13-diaza-tricyclo[13.3.0.0*4,6*]octadec-7-en-17-yl ester] | 1000 to 10000
Cc1ccc(C#N)c(NC(=O)O[C@@H]2C[C@H]3C(=O)N[C@]4(C(=O)NS(=O)(=O)C5CC5)C[C@H]4/C=C\CCCCN(C)C(=O)[C@@H]3C2)c1 [Example 18, (2-Cyano-5-methyl-phenyl)-carbamic acid 4-cyclopropanesulfonylaminocarbonyl-13-methyl-2,14-dioxo-3,13-diaza-tricyclo[13.3.0.0*4,6*]octadec-7-en-17-yl ester] | 200 to 990
COc1cccc(NC(=O)O[C@@H]2C[C@H]3C(=O)N[C@]4(C(=O)NS(=O)(=O)C5CC5)C[C@H]4/C=C\CCCCN(C)C(=O)[C@@H]3C2)c1 [Example 10, (3-Methoxyphenyl)-carbamic acid 4-cyclopropanesulfonylaminocarbonyl-13-methyl-2,14-dioxo-3,13-diaza-tricyclo[13.3.0.0*4,6*]octadec-7-en-17-yl ester] | 1000 to 10000
CN1CCCC/C=C\[C@@H]2C[C@@]2(C(=O)NS(=O)(=O)C2CC2)NC(=O)[C@@H]2C[C@@H](OC(=O)Nc3cccc(Oc4ccccc4)c3)C[C@H]2C1=O [Example 11, (3-Phenoxy-phenyl)-carbamic acid 4-cyclopropanesulfonylaminocarbonyl-13-methyl-2,14-dioxo-3,13-diaza-tricyclo[13.3.0.0*4,6*]octadec-7-en-17-yl ester] | 1000 to 10000
CN1CCCC/C=C\[C@@H]2C[C@@]2(C(=O)NS(=O)(=O)C2CC2)NC(=O)[C@@H]2C[C@@H](OC(=O)Nc3cccc(C#N)c3)C[C@H]2C1=O [Example 12, (3-Cyano-phenyl)-carbamic acid 4-cyclopropanesulfonylaminocarbonyl-13-methyl-2,14-dioxo-3,13-diaza-tricyclo[13.3.0.0*4,6*]octadec-7-en-17-yl ester] | 200 to 990
COC(=O)c1cccc(NC(=O)O[C@@H]2C[C@H]3C(=O)N[C@]4(C(=O)NS(=O)(=O)C5CC5)C[C@H]4/C=C\CCCCN(C)C(=O)[C@@H]3C2)c1 [Example 5, 3-(4-Cyclopropanesulfonylaminocarbonyl-13-methyl-2,14-dioxo-3,13-diaza-tricyclo-[13.3.0.0*4,6*]octadec-7-en-17-yloxycarbonylamino)-benzoic acid methyl ester] | 1000 to 10000
CN1CCCCC=CC2CC2(C(=O)NS(=O)(=O)C2CC2)NC(=O)C2CC(OC(=O)Nc3ccccc3C#N)CC2C1=O (stereo not drawn) [Example 1, (2-Cyanophenyl)-carbamic acid 4-cyclopropanesulfonylaminocarbonyl-13-methyl-2,14-dioxo-3,13-diaza-tricyclo[13.3.0.0*4,6*]octadec-7-en-17-yl ester] | > 10000
Cc1cccc(NC(=O)O[C@@H]2C[C@H]3C(=O)N[C@]4(C(=O)NS(=O)(=O)C5CC5)C[C@H]4/C=C\CCCCN(C)C(=O)[C@@H]3C2)c1 [Example 15, m-Tolyl-carbamic acid 4-cyclopropanesulfonylaminocarbonyl-13-methyl-2,14-dioxo-3,13-diaza-tricyclo[13.3.0.0*4,6*]octadec-7-en-17-yl ester] | > 10000
COc1ccc(C#N)cc1NC(=O)OC1CC2C(=O)NC3(C(=O)NS(=O)(=O)C4(C)CC4)CC3C=CCCCCN(C)C(=O)C2C1 (stereo not drawn) [Example 6c, (5-Cyano-2-methoxy-phenyl)-carbamic acid 13-methyl-4-(1-methyl-cyclopropanesulfonylaminocarbonyl)-2,14-dioxo-3,13-diaza-tricyclo[13.3.0.0*4,6*]-octadec-7-en-17-yl ester] | > 10000

What follows are molecules tested against T1, HCV NS3/4A protease complexes (full-length hepatitis C NS3 protease enzyme) (Hepatitis C virus genotype 1a, UniProt P27958) (assay: Inhibition assay (enzyme assay), depsipeptide substrate hydrolysis with NS4A cofactor). Conditions: 1 nM enzyme, 25 μM NS4A cofactor, 0.5 μM substrate, 30° C.
T1 construct: full-length hepatitis C NS3 protease enzyme
Assay type: biochemical
Procedure: The aim of this in vitro assay was to measure the inhibition of HCV NS3/4A protease complexes by the compounds of the present invention. This assay provides an indication of how effective compounds of the present invention would be in inhibiting HCV NS3/4A proteolytic activity.
The inhibition of full-length hepatitis C NS3 protease enzyme was measured essentially as described in Poliakov, 2002 Prot Expression & Purification 25 363 371. Briefly, the hydrolysis of a depsipeptide substrate, Ac-DED(Edans)EEAbuψ[COO]ASK(Dabcyl)-NH2 (AnaSpec, San José, USA), was measured spectrofluorometrically in the presence of a peptide cofactor, KKGSVVIVGRIVLSGK (Åke Engström, Department of Medical Biochemistry and Microbiology, Uppsala University, Sweden). [Landro, 1997 #Biochem 36 9340-9348]. The enzyme (1 nM) was incubated in 50 mM HEPES, pH 7.5, 10 mM DTT, 40% glycerol, 0.1% n-octyl-D-glucoside, with 25 μM NS4A cofactor and inhibitor at 30° C. for 10 min, whereupon the reaction was initiated by addition of 0.5 μM substrate. Inhibitors were dissolved in DMSO, sonicated for 30 sec. and vortexed. The solutions were stored at −20° C. between measurements.
The final concentration of DMSO in the assay sample was adjusted to 3.3%. The rate of hydrolysis was corrected for inner filter effects according to published procedures [Liu, Analytical Biochemistry, 1999, vol. 267, pp. 331-335]. Ki values were estimated by non-linear regression analysis (GraFit, Erithacus Software, Staines, MX, UK), using a model for competitive inhibition and a fixed value for Km (0.15 μM). A minimum of two replicates was performed for all measurements.

T1 sequence (P27958 1027-1657, one chain of several): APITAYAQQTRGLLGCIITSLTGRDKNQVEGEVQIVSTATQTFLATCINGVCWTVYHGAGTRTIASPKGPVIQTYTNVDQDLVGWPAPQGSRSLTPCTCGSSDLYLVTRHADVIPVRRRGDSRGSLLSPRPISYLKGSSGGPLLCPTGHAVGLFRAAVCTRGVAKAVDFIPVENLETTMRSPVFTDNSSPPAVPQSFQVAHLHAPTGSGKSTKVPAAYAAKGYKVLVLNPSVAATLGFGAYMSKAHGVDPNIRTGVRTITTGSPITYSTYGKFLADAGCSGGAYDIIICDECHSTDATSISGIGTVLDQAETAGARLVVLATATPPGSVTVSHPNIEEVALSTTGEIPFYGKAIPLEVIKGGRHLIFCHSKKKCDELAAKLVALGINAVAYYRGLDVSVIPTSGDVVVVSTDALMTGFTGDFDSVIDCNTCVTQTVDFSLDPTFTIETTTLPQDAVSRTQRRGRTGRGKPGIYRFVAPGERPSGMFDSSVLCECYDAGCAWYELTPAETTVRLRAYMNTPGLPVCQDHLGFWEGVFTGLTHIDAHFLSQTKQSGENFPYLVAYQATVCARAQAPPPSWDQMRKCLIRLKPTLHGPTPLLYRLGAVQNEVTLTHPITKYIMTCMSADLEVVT

SMILES | Ki [nM]
COc1ccccc1NC(=O)O[C@@H]1C[C@H]2C(=O)N[C@]3(C(=O)NS(=O)(=O)C4CC4)C[C@H]3/C=C\CCCCN(C)C(=O)[C@@H]2C1 [Example 3, (2-Methoxy-phenyl)-carbamic acid 4-cyclopropanesulfonylaminocarbonyl-13-methyl-2,14-dioxo-3,13-diaza-tricyclo[13.3.0.0*4,6*]octadec-7-en-17-yl ester] | 0.1 to 29.9
CN1CCCC/C=C\[C@@H]2C[C@@]2(C(=O)NS(=O)(=O)C2CC2)NC(=O)[C@@H]2C[C@@H](OC(=O)Nc3ccccc3Oc3ccccc3)C[C@H]2C1=O [Example 2, (2-Phenoxyphenyl)-carbamic acid 4-cyclopropanesulfonylaminocarbonyl-13-methyl-2,14-dioxo-3,13-diaza-tricyclo[13.3.0.0*4,6*]octadec-7-en-17-yl ester] | 0.1 to 29.9
CN1CCCCC=CC2CC2(C(=O)NS(=O)(=O)C2CC2)NC(=O)C2CC(OC(=O)Nc3ccccc3C#N)CC2C1=O (stereo not drawn) [Example 1, (2-Cyanophenyl)-carbamic acid 4-cyclopropanesulfonylaminocarbonyl-13-methyl-2,14-dioxo-3,13-diaza-tricyclo[13.3.0.0*4,6*]octadec-7-en-17-yl ester] | 30 to 100
